From patent US20110104121A1, “Female Reproductive Tract and Anal Prophylaxes” (priority 2008, published 2011) come the findings set out here.

Experiment [1] relates to Monocytes-derived Dendritic cells (MDDCs). Put plainly: surface receptor expression on monocyte-derived dendritic cells, flow cytometry. Type of experiment: cell-based, human. Here is the method: Materials and Methods. Uterine epithelial cell line (ECC-1) was cultured according to established methods to establish cellular polarity with apical and basolateral compartments (Schaefer, et al. (2004) Immunology 112:428-436). The formation of tight junctions by the epithelial cell monolayer was routinely monitored by measurement of transepithelial resistance (TER) (Richardson, et al. (1995) Biol. Reprod. 53:488-498). […] The pooled media was centrifuged for 5 minutes at 10,000 g and stored at −80° C. for use in subsequent studies.
Peripheral blood mononuclear cells (PBMC) were obtained from residues of platelet pheresis according to known methods (Dietz, et al. (2006) Transfusion 46:2083-2089). Monocytes were subsequently enriched with Rosette Sep reagent (StemCell, Vancouver, BC). Blood specimens were from healthy adult males. Monocytes-derived Dendritic cells (MDDCs) were in vitro generated with GM-CSF (50 ng/ml) and IL-4 (50 ng/ml) (PeproTech Inc, Rocky Hill, N.J.) (Sallusto Lanzavecchia (1994) J. Exp. Med. 179:1109-1118). MDDCs were differentiated for 7 days in the presence or absence of 24-hour conditioned medium (1:1 dilution) obtained from ECC-1. In some experiments TGF-beta receptor 1 blocker, SB431542 (10 μM; Tocris Cookson, Inc., St. Louis, Mo.) (Eriksson, et al. (2006) Am. J. Reprod. Immunol. 56:321-328; Shen, et al. (2007) Clin. Exp. Immunol. 149(1):155-61) was simultaneously added with ECC-1 CM for the entire duration of the differentiation. As positive control for TGF-beta effects on MDDCs, experimental conditions were included in which MDDCs were differentiated with recombinant human TGF-beta1 at three different concentrations (0.1, 1 and 10 ng/mL) in the presence or absence of SB431542. Following 7 days of culture, cells were harvested, washed and subsequently used for flow cytometry analyses.
Following six days of in vitro differentiation, surface staining of MDDCs was performed with the following fluorochrome-labeled monoclonal antibodies: CD1a (HI149), CD14 (61D3), from Ebioscience (San Diego, Calif.); and CD163 (215927), CCR5 (45531), CXCR4 (12G5), DC-SIGN (120507) from R&D Systems (Minneapolis, Minn.). Matched isotype controls for the antibodies were used to control for non-specific binding. Following antibody staining, cells were washed with staining buffer and fixed with 2% methanol-free paraformaldehyde in 1×PBS (2% PFA), followed by analysis with a Becton Dickinson FACS CALIBUR (San Jose, Calif.). The acquired FACS data were analyzed by CELL QUEST (BD Biosciences).
Statistical analysis was performed using two-way analysis of variance (ANOVA) ([…] Prism Version 5.0; […] Software Inc., San Diego, Calif.). A value of P<0.05 was considered significant.

In another experiment the test system is HIV-1 R5/M-tropic BaL. The experiment can be described thus: TZM-bl infectivity assay, HIV-1 BaL. Type of experiment: cell-based. The following applies: for post-infection inhibition, BaL: 20 ng/mL. Here is the method: (§1) The TZM indicator cell line is a HeLa cell derivative that expresses high levels of CD4, CCR5 and CXCR4 (Wei, et al. (2002) Antimicrob. Agents Chemother. 46(6):1896-905). The cells contain HIV long terminal repeat (LTR)-driven β-galactosidase and luciferase reporter cassettes that are activated by HIV tat expression.
(§2) TZM cells were seeded at 2×10^4 cells per well in a 96-well microtiter plate and allowed to adhere overnight at 37° C. Varying doses of recombinant human Trappin-2/Elafin (Peprotech, Rocky Hill, N.J.) were incubated with HIV-1 IIIB and BaL at multiplicity of infection (MOI) 1 for 1 hour at 37° C. in a final volume of 100 μl. Following incubation, the media was aspirated from TZM cells and the virus plus Trappin-2/Elafin was added to the cells along with 100 μl of TZM media. Luciferase activity was measured after 48 hours at 37° C. with 5% CO2 in a humidified incubator. Briefly, the supernatants were aspirated, and the cells were lysed with a BETA GLO luciferase assay substrate. Light intensity of each well was measured using a luminometer. Uninfected cells were used to determine background luminescence. All infectivity assays were performed in quadruplicate.
(§3) Other experiments were conducted in order to determine whether the inhibitory effects of Trappin-2/Elafin were at the cell surface level such as the blocking of a co-receptor. For these experiments, varying doses of Trappin-2/Elafin were directly added to TZM cells and incubated for 1 hour at 37° C. prior to washing with 1×PBS and addition of IIIB or BaL viruses. In additional experiments to determine possible post-infection mechanisms of inhibition by Trappin-2/Elafin, TZM cells were infected with HIV-1 IIIB and BaL at MOI 1 and were washed at 6 hours and 24 hours post-infection followed by the addition of 10 ng/ml rTrappin-2/Elafin. Assays were developed at 48 hours by addition of the BETA-GLO substrate and measuring relative light units using a luminometer.
(§4) Since HIV-1 is an important sexually transmitted pathogen, the activity of recombinant Trappin-2/Elaf in (rTrappin-2/Elafin) was evaluated against HIV-1 X4/T-tropic IIIB and R5/M-tropic BaL. HIV-1 IIIB and BaL were incubated with rTrappin-2/Elafin at 0.01, 0.1, 1, and 10 ng/ml for 1 hour at 37° C. TZM-bl indicator cells were plated the previous day at 25,000 cells per well and grown to 70-80% confluence. The virus-Trappin-2/Elafin mixture was added to the TZM cells and incubated for 48 hours at 37° C. At the end of the incubation period, BETA-GLO substrate was added to the cells and viral infection was quantified using a luminometer, expressed as relative light units (RLU). The data was expressed as percent of control with virus-only control set at 100%. […] Therefore, the concentrations of Trappin-2/Elafin showing anti-HIV-1 activity were in the range of physiological levels of this molecule that were secreted by the FRT epithelial cells. Since the inhibitory activity was observed as a result of pre-incubation of HIV-1 and rTrappin-2/Elafin, it is contemplated that the effect of Trappin-2/Elafin on viral infection was direct. […]
(§5) Laboratory-adapted viral strains HIV-1 IIIB (×4) and BaL (R5) were obtained and virus stocks were propagated in PHA-stimulated human PBMC and stored frozen at −80° C. Virus stocks produced in PBMC of molecularly cloned HIV-1 NL4.3 (×4; lab-adapted) and YU-2.c (R5; directly cloned without culture) were obtained. Virus titers were determined on TZM-bl cells as described herein. Also used was a PBMC-derived virus stock of pCH077.c, a recently generated Clade B infectious molecular clone matching the nucleotide sequence determined to be the transmitted/founder virus sequence of CHAVI subject 700010077. […]

The subject of the next experiment is HIV-1 X4/T-tropic IIIB. Put plainly: TZM-bl infectivity assay, HIV-1 IIIB. It counts as cell-based. As to the method: as §1, §2, §3, §4, §5
Experiment [2] is described as follows: systemic inflammatory response to E. coli endotoxin after hydrocortisone pre-treatment in volunteers. Type of experiment: in vivo, human. The following applies: for plasma G-CSF concentrations after LPS, vs Control Group: multiplex immunobead. The source says:
Materials and Methods. Participants (n=36) were healthy male and female volunteers who were taking no chronic medications (other than oral contraceptives) and who were between the ages of 18 and 55.
On Day 1 of the study, participants were randomized in a double-blind manner to a Control Group, a Stress Group or a Pharm Group. A peripheral intravenous catheter was inserted in a hospital outpatient facility where participants remained during the day. For six hours, Control Group participants received intravenous saline at […] by infusion pump; Stress Group participants received 1.5 μg/kg/minute hydrocortisone (SOLUCORTEF®, Upjohn) in normal saline at 10 ml/hour, and Pharm Group participants received 3.0 μg/kg/minute hydrocortisone in normal saline at 10 ml/hour. The following day (Day 2), participants were admitted to an acute care facility where a peripheral intravenous catheter was again inserted in a proximal arm vein. Continuous electrocardiographic and pulse oximetry measurements were initiated; blood pressure and core temperature were measured every 15 minutes for the next five hours and every 30 minutes for the next 4 hours. Participants received 10 ml/kg lactated Ringer's solution intravenously over the first 2 hours after which the infusion was decreased to 1.5 ml/kg/hour. After the first hour, participants were administered 2 ng/kg E. coli endotoxin intravenously over 2 minutes. Participants remained in the acute care facility for remainder of the day with continuous nursing care and under the direct supervision of a physician. The intravenous catheter was removed after 9 hours. The following day (Day 3) and 2 days later (Day 5), repeat blood samples were obtained by venipuncture.
Salivary free cortisol measurements were made on Day 1 to compare the in vivo cortisol pre-treatment with laboratory reports that typically test the effects of free glucocorticoid concentrations. On Day 2 of the study, total plasma cortisol was measured to allow for comparison with the many clinical reports that have assessed these hormones during experimental endotoxemia and in endotoxemic patients. For salivary free cortisol measurements, saliva samples were collected with a […]™ collection device and stored at −80° C. until analysis by SALIMETRICS® Expanded Range High Sensitivity Salivary Cortisol Enzyme Immunoassay Kit (State College, Pa.). The analytical sensitivity of this assay is 3 ng/dL. For total cortisol, plasma was separated from heparinized whole blood and stored at −80° C. until analysis for plasma cortisol on an […]® 1000 analyzer using a Siemens Cortisol kit (Los Angeles, Calif.). The analytical sensitivity of this assay is 0.2 μg/dL. All adrenocorticotropic hormone (ACTH) measurements were performed on the […]® 1000 analyzer using a Siemens ACTH kit (Los Angeles, Calif.). The analytical sensitivity of this assay is 9 pg/mL. C-reactive protein (CRP) measurements were performed on the Roche P Module using the Roche High Sensitivity CRP kit (Indianapolis, Ind.). Analytical sensitivity of this assay is 0.1 mg/L. Complete blood counts were performed on the ADVIA 120® Hematology Analyzer using Siemens reagents (Ramsey, Minn.).
Plasma samples were collected and frozen at −80° C. for batched measurement of TNFalpha, IL-6 and IL-10 concentrations. TNFalpha was measured using a TNFalpha sandwich ELISA (paired antibodies; BD Biosciences Pharmingen, San Diego, Calif.). IL-6 levels were determined using an IL-6 ELISA kit (Peprotech, Rocky Hill, N.J.). IL-10 was measured using an IL-10 ELISA kit (Biosource, Camarillo, Calif.). Further cytokine testing was completed on frozen samples using multiplex immunobead technology (Luminex Corp.) which combines the principle of a sandwich immunoassay with fluorescent bead-based technology, allowing individual and multiplex analysis of multiple analytes in a single microtiter well. […]

Setting [3] is: cells pre-incubated 1 hour, washed before virus.
Where [4] appears, read: virus pre-incubated 1 hour with 2, 20, 200 ng/mL, 48 hours.

Consider `NC(=O)c1ccc(-c2nc(-c3ccc4c(c3)OCO4)c(-c3ccccn3)[nH]2)cc1` [SB431542], for which the “modulatory effect of ECC-1 CM (suppression of DC-SIGN expression on MDDCs)” value in experiment [1] (SB431542 10 μM added with ECC-1 CM during differentiation) is “abrogated”. In experiment [1] (TGF-beta receptor blocker with ECC-1 CM), the “expression of CD1a by CM-DC” value is “no significant effect”. Also, the “UEC conditioned medium effects on DC (enhanced CCR5 and CXCR4, suppressed DC-SIGN)” value in experiment [1] (in vitro differentiation) is “abolished these effects”.
In the case of “rCCL20/MIP3α: recombinant human CCL20/MIP3α (Peprotech)”, the “post-infection inhibition, BaL” value in the experiment with HIV-1 R5/M-tropic BaL (added 6 hours post-infection) is “slight inhibition”; in the experiment with HIV-1 R5/M-tropic BaL (added 24 hours post-infection), “no significant post-infection inhibition”. For the same compound, the “inhibition of R5/BaL after pre-incubation of TZM cells” value in the experiment with HIV-1 R5/M-tropic BaL (setting [3]) is “no significant inhibition”. For the same compound, the “inhibition of R5/BaL” value with HIV-1 R5/M-tropic BaL (setting [4]) is listed as “inhibited”. Further, the “post-infection inhibition, IIIB” value in the experiment on HIV-1 X4/T-tropic IIIB (added 6 and 24 hours post-infection, 20 ng/mL) is on record as “no significant post-infection inhibition”. In addition, the “inhibition of X4/IIIB after pre-incubation of TZM cells” value with HIV-1 X4/T-tropic IIIB (setting [3]) is “no significant inhibition”. Also, the “inhibition of X4/IIIB” value in the experiment on HIV-1 X4/T-tropic IIIB (setting [4]) is “inhibited”.
Turning to `C[C@]12CCC(=O)C=C1CC[C@@H]1[C@@H]2[C@@H](O)C[C@@]2(C)[C@H]1CC[C@]2(O)C(=O)CO` [hydrocortisone], the “release of early pro-inflammatory molecules” value in experiment [2] (1.5 μg/kg/minute at 10 ml/hr for six hours) was “significant enhancement”. The “Plasma IL-6 after LPS, vs Control Group” value in experiment [2] (Pharm 3 μg/kg/min) is on record as “no difference”; in experiment [2] (Stress 1.5 μg/kg/min, p<0.005), “significantly higher”. Besides, the “Plasma IL-10 after LPS, vs Control Group” value in experiment [2] (Pharm 3 μg/kg/min) is reported as “no difference”; in experiment [2] (Stress 1.5 μg/kg/min, p<0.05), “significantly lower”. Moreover, the “TNF-alpha concentrations in plasma after LPS, vs Control Group” value in experiment [2] (Pharm 3 μg/kg/min) and in experiment [2] (Stress 1.5 μg/kg/min) was “not significantly different” each time. Besides, the “plasma G-CSF concentrations after LPS, vs Control Group” value is recorded as “no difference” in experiment [2] (Pharm 3 μg/kg/min) and “significant augmentation” in experiment [2] (Stress 1.5 μg/kg/min). In experiment [2] (Stress 1.5 μg/kg/min, 3 and 4 hours after LPS injection), the “ACTH concentrations, vs Control Group” value is reported as “higher”.
